The target of data set [1] is T1, C-terminal catalytic domain of MALT1 (amino acid residues 329-824) (Homo sapiens, UniProt Q9UDY8).
T1 construct: C-terminal catalytic domain of MALT1 (amino acid residues 329-824)
T1 sequence (Q9UDY8 329-824): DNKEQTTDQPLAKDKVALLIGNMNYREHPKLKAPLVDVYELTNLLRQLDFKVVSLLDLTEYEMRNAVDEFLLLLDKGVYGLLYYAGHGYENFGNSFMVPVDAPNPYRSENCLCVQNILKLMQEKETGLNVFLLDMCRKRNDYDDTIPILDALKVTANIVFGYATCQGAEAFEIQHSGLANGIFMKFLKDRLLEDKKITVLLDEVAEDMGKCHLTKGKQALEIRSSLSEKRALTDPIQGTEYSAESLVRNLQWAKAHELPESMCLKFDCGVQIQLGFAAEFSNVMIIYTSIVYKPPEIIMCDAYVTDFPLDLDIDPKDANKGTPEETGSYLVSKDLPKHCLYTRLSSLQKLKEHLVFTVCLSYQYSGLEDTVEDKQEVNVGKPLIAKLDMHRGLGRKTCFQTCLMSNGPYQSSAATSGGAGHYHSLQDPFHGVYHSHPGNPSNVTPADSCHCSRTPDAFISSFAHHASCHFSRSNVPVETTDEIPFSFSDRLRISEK
Briefly: MALT1 protease inhibitory activity (enzyme activity inhibition assay, fluorogenic substrate). It is filed as biochemical. The settings on record: substrate Ac-Leu-Arg-Ser-Arg-AMC 50 µM; 30°C for 2 hours; fluorescence. An outline of the steps:
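Human MALT1 catalytic domain (residues 329-824) with Ac-Leu-Arg-Ser-Arg-AMC at 50 µM final, pH 7.5 Tris/HEPES buffer with 0.8 M Na citrate, DTT and CHAPS. Compounds at 0.1 to 10000 nM final, n = 2; reaction 2 h at 30°C. Fluorescence (ex 380/em 460 nm) fitted to a 2-parameter logistic model for IC50.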

Data set [2] deals with HEK293/API2-MALT1/NF-κB reporter cells. Briefly: Inhibition of reporter activity in HEK293/API2-MALT1/NF-κB reporter cells. The format is cell-based. The settings on record: Homo sapiens, 24 hours with test substance, One-glo luminescence. An outline of the steps:
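HEK293 cells with constitutive NF-κB activation by API2-MALT1 fusion, carrying an NF-κB reporter; 293T/CMV reporter cells served as negative control. Cells seeded 24 h, then exposed to compound at final 10,000, 1,000, 100 and 10 nM for 24 h at 37 °C; luminescence read with One-glo, IC50 by non-linear regression.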

Another data set has as its system OCI-Ly3 cell lines. Briefly: Proliferation inhibition test, ABC-DLBCL cell line OCI-Ly3. The format is cell-based. The conditions noted are these: Homo sapiens; OCI-Ly3 (ABC-DLBCL, NF-κB pathway-dependent); 96 hours; Cell Counting Kit-8; read-out: Proliferation inhibitory activity against OCI-Ly3 IC50. The method, boiled down:
(§1)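 Cells exposed 96 h at 37 °C to compound at final 10–10,000 nM: OCI-Ly3 (ABC-DLBCL, NF-κB-dependent, IMDM/10% FBS) and SU-DHL-4 (GCB-DLBCL, NF-κB-independent negative control, RPMI-1640/10% FBS). Viability by CCK-8 absorbance at 450 nm after 4 h; IC50 from 2-parameter logistic regression.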

The next data set deals with SU-DHL-4 cell lines. Nature of the data set: Proliferation inhibition test, GCB-DLBCL cell line SU-DHL-4 (negative control line). The format is cell-based. The conditions noted are these: Homo sapiens; SU-DHL-4 (GCB-DLBCL, NF-κB pathway-independent, negative control); 96 hours; Cell Counting Kit-8; read-out: Proliferation inhibitory activity against SU-DHL-4 IC50. An outline of the steps:
as §1
On the technique in general: Tetrazolium assays rely on reduction of a dye to a coloured formazan, in cell work by metabolically active cells.

Data set [3] in a line: Central nervous system (CNS) penetration study in mice. The settings on record: female, BALB/cCrSlc, mouse, ip, 30 mg/kg intraperitoneally, three hours later, cerebrum and plasma by LC-MS/MS, read-out: Brain-to-plasma concentration ratio (Kp value). It is filed as in vivo. How it is done:
To evaluate the central nervous system (CNS) penetration of a test substance, a central nervous system penetration study was conducted using mice.
Six-week-old female BALB/cCrSlc mice (Japan SLC) were used. The test substance suspended in 0.5% methylcellulose was intraperitoneally administered to mice at a dose of 30 mg/kg. Three hours later, blood was collected from the abdominal vena cava under isoflurane anesthesia, and plasma was obtained by centrifugation. After exsanguination from the abdominal vena cava, the cerebrum was collected.
The drug concentrations of the collected plasma and cerebrum were measured by LC-MS/MS. To determine the brain penetration of the drug, the brain-to-plasma concentration ratio (Kp value) was calculated.

As for `CCn1cc(C(=O)c2cnn(-c3cncc4c(F)cccc34)c2C(F)(F)F)c2cc(Cl)c(-n3nccn3)nc21` [Example 7, [5-chloro-1-ethyl-6-(2H-1,2,3-triazol-2-yl)-1H-pyrrolo[2,3-b]pyridin-3-yl][1-(8-fluoroisoquinolin-4-yl)-5-(trifluoromethyl)-1H-pyrazol-4-yl]methanone], the IC50 in data set [1] stood at 0.025 µM; in data set [2] it was 0.15 µM; in the data set with OCI-Ly3 cell lines, 0.13 µM; in the data set with SU-DHL-4 cell lines, 3.2 µM. Also, the Kp at 3 h in data set [3] stood at 0.52.
As to `CCCn1cc(C(=O)c2cnn(-c3cncc4c(F)cccc34)c2C(F)(F)F)c2cc(Cl)c(-n3nccn3)nc21` [Example 8, [5-chloro-1-propyl-6-(2H-1,2,3-triazol-2-yl)-1H-pyrrolo[2,3-b]pyridin-3-yl][1-(8-fluoroisoquinolin-4-yl)-5-(trifluoromethyl)-1H-pyrazol-4-yl]methanone], the IC50 in data set [1] came to 0.039 µM; in data set [2], 0.28 µM; with OCI-Ly3 cell lines, 0.11 µM; with SU-DHL-4 cell lines, 2.4 µM. The Kp at 3 h in data set [3] worked out at 0.52.
Taken in the same sequence, the figures for `C[C@@H]1CC(C(=O)c2cn(CCCO)c3nc(-c4ncccn4)c(Cl)cc23)C[C@@H](C)N1c1ncc(F)cc1I` (stereo partly drawn) [Example 9, [5-chloro-1-(3-hydroxypropyl)-6-(pyrimidin-2-yl)-1H-pyrrolo[2,3-b]pyridin-3-yl][(2R,6R)-1-(5-fluoro-3-iodopyridin-2-yl)-2,6-dimethylpiperidin-4-yl]methanone] were 0.069 µM, 0.14 µM, 0.48 µM, 5.1 µM and 1.4.
Taken in the same sequence, the figures for `C[C@@H]1CC(C(=O)c2cn(C3COC3)c3nc(-c4ncccn4)c(Cl)cc23)C[C@@H](C)N1c1ncc(F)cc1I` (stereo partly drawn) [Example 10, [5-chloro-1-(oxetan-3-yl)-6-(pyrimidin-2-yl)-1H-pyrrolo[2,3-b]pyridin-3-yl][(2R,6R)-1-(5-fluoro-3-iodopyridin-2-yl)-2,6-dimethylpiperidin-4-yl]methanone] were 0.067 µM, 0.14 µM, 0.44 µM, 6 µM and 1.7.
On the same counts, the results for `C[C@@H]1CC(C(=O)c2cn(C)c3nc(-c4ncccn4)c(Cl)cc23)C[C@@H](C)N1c1ncc(F)cc1I` (stereo partly drawn) [Example 11, [5-chloro-1-methyl-6-(pyrimidin-2-yl)-1H-pyrrolo[2,3-b]pyridin-3-yl][(2R,6R)-1-(5-fluoro-3-iodopyridin-2-yl)-2,6-dimethylpiperidin-4-yl]methanone] are 0.054 µM, 0.23 µM, 0.29 µM, 8.9 µM and 3.
`Cn1cc(C(=O)c2cnn(-c3cncc4c(F)cccc34)c2C(F)(F)F)c2cc(Cl)c(-c3ncccn3)nc21` [Example 12, [5-chloro-1-methyl-6-(pyrimidin-2-yl)-1H-pyrrolo[2,3-b]pyridin-3-yl][1-(8-fluoroisoquinolin-4-yl)-5-(trifluoromethyl)-1H-pyrazol-4-yl]methanone]: the IC50 in data set [1] was 0.011 µM; in data set [2], 0.085 µM; with OCI-Ly3 cell lines, 0.21 µM; with SU-DHL-4 cell lines, 1.9 µM. Besides, the Kp at 3 h in data set [3] worked out at 0.66.
On the same counts, the results for `CCn1cc(C(=O)C2C[C@@H](C)N(c3ncc(F)cc3I)[C@H](C)C2)c2cc(Cl)c(-n3nccn3)nc21` (stereo partly drawn) [Example 14, [5-chloro-1-ethyl-6-(2H-1,2,3-triazol-2-yl)-1H-pyrrolo[2,3-b]pyridin-3-yl][(2R,6R)-1-(5-fluoro-3-iodopyridin-2-yl)-2,6-dimethylpiperidin-4-yl]methanone] are 0.058 µM, 0.07 µM, 0.47 µM, 8.5 µM and 0.74.

These data come from EP4772507A1, “AZAINDOLE COMPOUND AND MEDICAL DRUG” (Nippon Shinyaku Co., Ltd., priority 2023, dated 2025).
